Test system: tyrosinase from mushroom
Test: Inhibition of tyrosinase, absorbancy at 475 nm with tyrosine substrate
Assay type: biochemical
Details: for percent inhibition of the tyrosinase: pH 6.8 sodium acetate buffer, Example 1
Method: A buffer solution A containing 50 mM sodium acetate was prepared to yield a 6.8 pH.
A test tube was charged with 2.7 ml of buffer solution A and 0.4 ml. water to define a blank. Similarly, another test tube was charged with 2.7 ml. of the tyrosine solution, 0.3 ml of water, and 0.1 ml of the tyrosinase solution to define a reference. The absorbency of the reference was measured at 475 nm over a period of time with a spectrophotometer and the absorbancy was set to zero.
A test tube was charged with 2.7 ml of the tyrosine solution, 0.1 ml. of the tyrosinase solution and 0.02% of mercaptosuccinic acid together with 0.5% acerola cherry fermentate.

Row | SMILES | Percent Inhibition (0.5 hours) (0.5 hours, Table 1) | Percent Inhibition (24 hours) (24 hours, Table 1) | percent inhibition of the tyrosinase (0.5 hours) | percent inhibition of the tyrosinase (24 hours)
1 | O=c1cc(CO)occ1O [Comparative Example 2, kojic acid] | 91 | 92 |  | 
2 | O=C(O)CC(S)C(=O)O (stereo not shown) [compound 1, mercaptosuccinic acid] |  |  | 95% | 77%

Reference: patent US5747006A, “Skin whitener composition containing acerola cherry fermentate” (Amway Corporation, priority 1997, dated 1998)
